# Where a name gives a salt, the structure may show the parent alone.
# Tests used:
# [1] = test system: adjuvant arthritis caused by Mycobacterium tuberculosis adjuvant; assay: Adjuvant Arthritis Test; assay type: in vivo, SD male rats; settings: 5 mg/Kg subcutaneous, 9 times, left hind leg, * P<0.05, ** P<0.01
# Method: The adjuvant arthritis in rats caused by injection of a Mycobacterium tuberculosis adjuvant is often utilized for a model test of chronic rheumatoid arthritis in men.
# The mechanism of manifestation of this disease has not completely been elucidated, but it is known that the cellular immunity takes an important role. The immunopotentiative action of the compound of the present invention was tested according to this known adjuvant arthritis test.
# A group of ten 9-weeks-old SD male rats were used for the test. In 0.1 ml of fluid paraffin, 0.4 mg of dry dead cells of Mycobacterium tuberculosis were suspended, and the suspension was injected under the heel skin of the right hind leg. The compound of the present invention was subcutaneously administered 9 times as a whole before and after injection of the adjuvant. The test compound was dissolved in a physiological saline and administered at a dose of 5 mg per Kg of the body weight. The swelling volume of the left hind leg as measured during the period of from the day of injection to the day of completion of the test, and the swelling ratio was calculated. For comparison, the test was similarly conducted by using Levamisole hydrochloride. F.t tests were carried out on the obtained test results. The group in which the test result was significant at a level of P<0.05 was marked by *, and the group in which the test result was significant at a level of P<0.01 was marked by **.
# Sarcoma 180 [2] = assay: Test of Antitumor Effect to Sarcoma 180 by Oral Administration; assay type: in vivo, ICR female mice; settings: for D: average diameter (mm) of tumor, 2 weeks / D: average diameter (mm) of tumor, 4 weeks / D: average diameter (mm) of tumor, 6 weeks / D: average diameter (mm) of tumor, 8 weeks / D: average diameter (mm) of tumor, 10 weeks: 100 mg/Kg oral once a day, 10 days; for N: number of living mice, 0 weeks / N: number of living mice, 2 weeks / N: number of living mice, 4 weeks / N: number of living mice, 6 weeks / N: number of living mice, 8 weeks / N: number of living mice, 10 weeks: group of 6
# Method: To the control group, a physiological saline was similarly administered. The dose of the compound was 100 mg per Kg of the body weight. The diameter D (mm) of the tumor was measured, and the average value and the number N of the living mice were determined to obtain results shown in Table 4.
# [3] = test system: delayed hypersensitivity induced by picryl chloride; assay: Test of Reinforcement of Delayed Hypersensitivity (picryl chloride, mouse ear thickness); assay type: in vivo, ICR male mice; settings: 50 mg/Kg oral, simultaneously with sensitization; 24 hours after challenge; * P<0.05, ** P<0.01
# From the text: Various test systems using animals have been proposed for determining the immunopotentiative action. Results of the test of reinforcement of the delayed hypersensitivity, which is a typical test among these tests, will now be described.
# This system was used for the test of reinforcement of the delayed hypersensitivity.
# One group of eight ICR male mice, each having a body weight of about 30 g, was used for the test.
# Sensitization was effected by coating a 7% solution of picryl chloride in a 4/1 mixture of olive oil and acetone on the shaved abdomen of the mouse.
# Simultaneously with sensitization, a solution or suspension of the compound of the present invention in a 0.2% solution of carboxymethyl cellulose in a physiological saline was orally administered to the mouse at a dose of 50 mg per Kg of the body weight. To the control group, a 0.2% carboxymethyl cellulose solution in a physiological saline was similarly administered.
# The delayed hypersensitivity was challenged 7 days after sensitization by gripping the ear of the mouse by a forceps wrapped with a felt impregnated with a 1% solution of picryl chloride in olive oil and coating the ear with the solution. The thickness of the ear was measured before challenging and 24 hours after challenging and the ratio of increase of the thickness (average value of both the ears in eight mice±standard deviation) was obtained as shown in Table 1.
# For comparison, the test was similarly carried out by using Levamisole hydrochloride, and the obtained results are shown in Table 1. F.t tests were carried out. The group in which the test result was significant at a level of P<0.05 was marked by *, and the group in which the test result was significant at a level of P<0.01 was marked by **.
# EL-4 leukemic cells = assay: In-Vitro Test of Inhibition of Growth of Cancer Cell by Macrophage (3H-thymidine take-in); assay type: cell-based, C57 BL/6J mouse (EL-4 cells); ddY female mice (macrophages); settings: 8 mg/Kg intraperitoneal; for Take-in Ratio (average value, %): macrophages collected after 4 days, 3H-thymidine incorporated into EL-4 cells; for inhibition of take-in of 3H-thymidine by EL-4 cells / macrophage activation (in words): hydrochloride
# Method: The results of the test of the action of the effective ingredient of the present invention on the macrophage will now be described with reference to the following Test 3. More specifically, the separated macrophage and EL-4 leukemic cell were mixed and cultured, and ^3 H-thymidine was added to a culture medium and the quantity of ^3 H-thymidine incorporated into the EL-4 cell was determined to examine the activity of the macrophage. When the macrophage is activated by administration of the effective ingredient of the present invention, inhibition of the growth of EL-4 cell, that is, phagocytosis of the cancer cell by the macrophage, is observed. Accordingly, if the take-in amount of ^3 H-thymidine is measured and this amount is reduced, it is confirmed that the macrophage has been activated. Test Procedures: […] The dose was 8 mg per Kg of the body weight. To the control group, a physiological saline was similarly administered. After passage of 4 days, exuded abdominal cells were collected and deposited on a plastic Petri dish to collect macrophages. […] Then, 0.1 μCi of ^3 H-thymidine was added and culturing was further conducted for 16 hours. Cells were collected on a filter paper from the culture medium and the amount of ^3 H-thymidine incorporated in was determined by a liquid scintillation counter.
# Sarcoma 180 [4] = assay: Test of Antitumor Effect to Sarcoma 180 by Subcutaneous Administration; assay type: in vivo, ICR female mice; settings: 20 mg/Kg subcutaneous; for N: number of living mice, 0 weeks / N: number of living mice, 2 weeks / N: number of living mice, 4 weeks / N: number of living mice, 6 weeks / N: number of living mice, 8 weeks / N: number of living mice, 10 weeks: group of 6
# Method: To the control group, a physiological saline was similarly administered. […] The diameter D (mm) of the tumor was measured, and the average value and the number N of the living mice were determined to obtain results shown in Table 4.
# [5] = Test of Acute Toxicity by Oral Administration; assay type: in vivo, ddY male mice; settings: mice, after 7 days
# Method: A solution or suspension of the compound in a physiological saline was orally administered to one group of three ddY male mice, and after 7 days, the estimated LD50 value was determined.
smiles,measurement,setting,value
CCN(CC)C(=O)N1CCN(c2nccs2)CC1 [drawing 11],"Swelling Ratio (average value ± standard variation, %), 15 days",[1],60.9 ± 8.0%
same,"Swelling Ratio (average value ± standard variation, %), 18 days",[1],59.8 ± 7.8%
same,"Swelling Ratio (average value ± standard variation, %), 21 days",[1],50.5 ± 10.0%
CCN(CC)C(=O)N1CCN(c2nc(-c3ccccc3)cs2)CC1 [drawing 14],"D: average diameter (mm) of tumor, 2 weeks",Sarcoma 180 [2],5.6 mm
same,"D: average diameter (mm) of tumor, 4 weeks",Sarcoma 180 [2],3.5 mm
same,"D: average diameter (mm) of tumor, 6 weeks",Sarcoma 180 [2],4.6 mm
same,"D: average diameter (mm) of tumor, 8 weeks",Sarcoma 180 [2],0 mm
same,"D: average diameter (mm) of tumor, 10 weeks",Sarcoma 180 [2],0 mm
same,"N: number of living mice, 0 weeks",Sarcoma 180 [2]; 100 mg/Kg oral,6
same,"N: number of living mice, 2 weeks",Sarcoma 180 [2]; 100 mg/Kg oral,6
same,"N: number of living mice, 4 weeks",Sarcoma 180 [2]; 100 mg/Kg oral,6
same,"N: number of living mice, 6 weeks",Sarcoma 180 [2]; 100 mg/Kg oral,6
same,"N: number of living mice, 8 weeks",Sarcoma 180 [2]; 100 mg/Kg oral,6
same,"N: number of living mice, 10 weeks",Sarcoma 180 [2]; 100 mg/Kg oral,6
"c1ccc([C@H]2CN3CCSC3=N2)cc1 [Levamisole hydrochloride, reference compound]","Ratio of Increase of Ear Thickness (average value ± standard variation, %)",[3],33.9 ± 3.0%
same,"Take-in Ratio (average value, %)",EL-4 leukemic cells,53.3%
same,inhibition of take-in of 3H-thymidine by EL-4 cells / macrophage activation (in words),EL-4 leukemic cells,does not exhibit such action
same,inhibition of take-in of 3H-thymidine by EL-4 cells / macrophage activation (in words),EL-4 leukemic cells; listed as Levamisole,hardly exhibits such action
same,"D: average diameter (mm) of tumor, 2 weeks",Sarcoma 180 [2],8.1 mm
same,"D: average diameter (mm) of tumor, 4 weeks",Sarcoma 180 [2],16.8 mm
same,"D: average diameter (mm) of tumor, 6 weeks",Sarcoma 180 [2],23.1 mm
same,"D: average diameter (mm) of tumor, 8 weeks",Sarcoma 180 [2],27.4 mm
same,"D: average diameter (mm) of tumor, 10 weeks",Sarcoma 180 [2],25.5 mm
same,antitumor action (in words),"Sarcoma 180 [2]; 100 mg/Kg oral, repeatedly",no substantial antitumor action was observed
same,"N: number of living mice, 0 weeks",Sarcoma 180 [2]; 100 mg/Kg oral,6
same,"N: number of living mice, 2 weeks",Sarcoma 180 [2]; 100 mg/Kg oral,6
same,"N: number of living mice, 4 weeks",Sarcoma 180 [2]; 100 mg/Kg oral,6
same,"N: number of living mice, 6 weeks",Sarcoma 180 [2]; 100 mg/Kg oral,6
same,"N: number of living mice, 8 weeks",Sarcoma 180 [2]; 100 mg/Kg oral,6
same,"N: number of living mice, 10 weeks",Sarcoma 180 [2]; 100 mg/Kg oral,5
same,antitumor activity (in words),Sarcoma 180 [4],no substantial antitumor activity
same,"N: number of living mice, 0 weeks",Sarcoma 180 [4],6
same,"D: average diameter (mm) of tumor, 2 weeks",Sarcoma 180 [4],3.6 mm
same,"N: number of living mice, 2 weeks",Sarcoma 180 [4],6
same,"D: average diameter (mm) of tumor, 4 weeks",Sarcoma 180 [4],14.1 mm
same,"N: number of living mice, 4 weeks",Sarcoma 180 [4],6
same,"D: average diameter (mm) of tumor, 6 weeks",Sarcoma 180 [4],22.2 mm
same,"N: number of living mice, 6 weeks",Sarcoma 180 [4],6
same,"D: average diameter (mm) of tumor, 8 weeks",Sarcoma 180 [4],26.8 mm
same,"N: number of living mice, 8 weeks",Sarcoma 180 [4],3
same,"D: average diameter (mm) of tumor, 10 weeks",Sarcoma 180 [4],23.8 mm
same,"N: number of living mice, 10 weeks",Sarcoma 180 [4],2
same,"Swelling Ratio (average value ± standard variation, %), 15 days",[1],54.6 ± 11.3%
same,"Swelling Ratio (average value ± standard variation, %), 18 days",[1],61.7 ± 9.8%
same,"Swelling Ratio (average value ± standard variation, %), 21 days",[1],73.3 ± 14.6%
same,estimated LD50 value,[5],150 to 200 mg/kg
CCN(CC)C(=O)N1CCN(c2nc(-c3ccccc3)cs2)CC1 [drawing 8],"Ratio of Increase of Ear Thickness (average value ± standard variation, %)",[3],37.5 ± 2.1%
CCN(CC)C(=O)N1CCN(c2nccs2)CC1 [drawing 9],"Ratio of Increase of Ear Thickness (average value ± standard variation, %)",[3],36.6 ± 3.0%
CCN(CC)C(=O)N1CCN(c2nc(-c3ccccc3)cs2)CC1 [drawing 12],"Take-in Ratio (average value, %)",EL-4 leukemic cells,21.0%
CCN(CC)C(=O)N1CCN(c2nccs2)CC1 [drawing 17],"N: number of living mice, 0 weeks",Sarcoma 180 [4],6
same,"D: average diameter (mm) of tumor, 2 weeks",Sarcoma 180 [4],4.9 mm
same,"N: number of living mice, 2 weeks",Sarcoma 180 [4],6
same,"D: average diameter (mm) of tumor, 4 weeks",Sarcoma 180 [4],6.7 mm
same,"N: number of living mice, 4 weeks",Sarcoma 180 [4],6
same,"D: average diameter (mm) of tumor, 6 weeks",Sarcoma 180 [4],9.6 mm
same,"N: number of living mice, 6 weeks",Sarcoma 180 [4],6
same,"D: average diameter (mm) of tumor, 8 weeks",Sarcoma 180 [4],5.6 mm
same,"N: number of living mice, 8 weeks",Sarcoma 180 [4],6
same,"D: average diameter (mm) of tumor, 10 weeks",Sarcoma 180 [4],0 mm
same,"N: number of living mice, 10 weeks",Sarcoma 180 [4],6
CCN(CC)C(=O)N1CCN(c2nccs2)CC1 [drawing 13],"Take-in Ratio (average value, %)",EL-4 leukemic cells,25.8%
CCN(CC)C(=O)N1CCN(c2nc(-c3ccccc3)cs2)CC1 [drawing 10],"Swelling Ratio (average value ± standard variation, %), 15 days",[1],43.5 ± 13.9%
same,"Swelling Ratio (average value ± standard variation, %), 18 days",[1],41.5 ± 12.6%
same,"Swelling Ratio (average value ± standard variation, %), 21 days",[1],52.9 ± 11.2%
CCN(CC)C(=O)N1CCN(c2nccs2)CC1 [drawing 15],"D: average diameter (mm) of tumor, 2 weeks",Sarcoma 180 [2],8.6 mm
same,"D: average diameter (mm) of tumor, 4 weeks",Sarcoma 180 [2],7.5 mm
same,"D: average diameter (mm) of tumor, 6 weeks",Sarcoma 180 [2],6.7 mm
same,"D: average diameter (mm) of tumor, 8 weeks",Sarcoma 180 [2],7.7 mm
same,"D: average diameter (mm) of tumor, 10 weeks",Sarcoma 180 [2],0 mm
same,"N: number of living mice, 0 weeks",Sarcoma 180 [2]; 100 mg/Kg oral,6
same,"N: number of living mice, 2 weeks",Sarcoma 180 [2]; 100 mg/Kg oral,6
same,"N: number of living mice, 4 weeks",Sarcoma 180 [2]; 100 mg/Kg oral,6
same,"N: number of living mice, 6 weeks",Sarcoma 180 [2]; 100 mg/Kg oral,6
same,"N: number of living mice, 8 weeks",Sarcoma 180 [2]; 100 mg/Kg oral,6
same,"N: number of living mice, 10 weeks",Sarcoma 180 [2]; 100 mg/Kg oral,6
CCN(CC)C(=O)N1CCN(c2nc(-c3ccccc3)cs2)CC1 [drawing 16],"N: number of living mice, 0 weeks",Sarcoma 180 [4],6
same,"D: average diameter (mm) of tumor, 2 weeks",Sarcoma 180 [4],2.6 mm
same,"N: number of living mice, 2 weeks",Sarcoma 180 [4],6
same,"D: average diameter (mm) of tumor, 4 weeks",Sarcoma 180 [4],3.5 mm
same,"N: number of living mice, 4 weeks",Sarcoma 180 [4],6
same,"D: average diameter (mm) of tumor, 6 weeks",Sarcoma 180 [4],6.5 mm
same,"N: number of living mice, 6 weeks",Sarcoma 180 [4],6
same,"D: average diameter (mm) of tumor, 8 weeks",Sarcoma 180 [4],0.6 mm
same,"N: number of living mice, 8 weeks",Sarcoma 180 [4],6
same,"D: average diameter (mm) of tumor, 10 weeks",Sarcoma 180 [4],0 mm
same,"N: number of living mice, 10 weeks",Sarcoma 180 [4],6
